# Results published in PubChem BioAssay (NCI).
#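 Results reflect a 48-hour exposure of cells in 96-well plates to compound at five concentrations. GI50: concentration for 50% inhibition of growth. At the TGI there is no net growth.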
# What was measured:
# Assay in all cases: inhibition of tumour cell growth, NCI panel, 48 h
# HOP-92 NSCLC = system: HOP-92 NSCLC
# IGROV1 ovarian = system: IGROV1 ovarian
# MCF7 breast = system: MCF7 breast
# NCI-H23 lung = system: NCI-H23 lung
# OVCAR-4 ovarian = system: OVCAR-4 ovarian
# OVCAR-5 ovarian = system: OVCAR-5 ovarian
# OVCAR-8 ovarian = system: OVCAR-8 ovarian
# PC-3 prostate = system: PC-3 prostate
# SF-268 CNS = system: SF-268 CNS
# UACC-62 melanoma = system: UACC-62 melanoma
Compound,GI50 (HOP-92 NSCLC),TGI (HOP-92 NSCLC),GI50 (IGROV1 ovarian),TGI (IGROV1 ovarian),GI50 (MCF7 breast),TGI (MCF7 breast),GI50 (NCI-H23 lung),TGI (NCI-H23 lung),GI50 (OVCAR-4 ovarian),TGI (OVCAR-4 ovarian),GI50 (OVCAR-5 ovarian),TGI (OVCAR-5 ovarian),GI50 (OVCAR-8 ovarian),TGI (OVCAR-8 ovarian),GI50 (PC-3 prostate),TGI (PC-3 prostate),GI50 (SF-268 CNS),TGI (SF-268 CNS),GI50 (UACC-62 melanoma),TGI (UACC-62 melanoma)
O=[N+]([O-])c1ccc(N2CCOCC2)c2c1no[n+]2[O-],0.923 µM,5.62 µM,1.3 µM,4.15 µM,0.543 µM,2.96 µM,1.08 µM,4.83 µM,1.38 µM,3.99 µM,3.28 µM,13.4 µM,1.1 µM,2.62 µM,1.25 µM,5.53 µM,0.939 µM,3.03 µM,1.21 µM,3.87 µM
CC12CCC(=O)N1c1ccc([N+](=O)[O-])cc1N2 (stereo not given),–,–,–,> 100 µM,–,–,–,> 100 µM,–,> 100 µM,–,–,–,> 100 µM,–,–,–,> 100 µM,–,> 100 µM
N#CCCN1C/C(=C/c2ccc(Cl)cc2)C(=O)/C(=C/c2ccc(Cl)cc2)C1,1.81 µM,5 µM,1.75 µM,3.95 µM,0.42 µM,2.81 µM,2.18 µM,5.61 µM,3.01 µM,15.7 µM,2.07 µM,4.7 µM,0.543 µM,11.6 µM,0.489 µM,3.61 µM,1.51 µM,3.09 µM,1.8 µM,4.1 µM
C(=N/N(Cc1ccccc1)Cc1ccccc1)/c1ccccc1,53.3 µM,> 100 µM,> 100 µM,> 100 µM,42.9 µM,> 100 µM,90.8 µM,> 100 µM,> 100 µM,> 100 µM,> 100 µM,> 100 µM,> 100 µM,> 100 µM,> 100 µM,> 100 µM,> 100 µM,> 100 µM,75 µM,> 100 µM
Cc1ccccc1NC(=O)C(=O)C(C#N)c1ccccc1C (stereo not given),–,> 100 µM,–,> 100 µM,–,–,–,> 100 µM,–,–,–,> 100 µM,–,> 100 µM,–,–,–,> 100 µM,–,> 100 µM
O=C1c2sccc2-c2cccc3cccc1c23 (tested in a mixture with another compound),–,–,–,50.2 µM,–,> 100 µM,–,–,–,33.9 µM,–,25.5 µM,–,36.4 µM,–,31.6 µM,–,> 100 µM,–,22.6 µM
OC(C#Cc1ccccc1)(c1ccccc1)c1ccccc1,–,–,–,> 100 µM,–,45.7 µM,–,> 100 µM,–,> 100 µM,–,> 100 µM,–,> 100 µM,–,> 100 µM,–,54.9 µM,–,> 100 µM
CCCCCCNC(=O)Oc1ccc(/C(=C(\C)c2ccc(Cl)cc2)c2ccc(OCCN3CCCCC3)cc2)cc1,3.55 µM,7.88 µM,4.38 µM,10.5 µM,0.104 µM,5.38 µM,3.89 µM,9.61 µM,2.35 µM,7.73 µM,5.03 µM,16 µM,5.53 µM,11.7 µM,2.23 µM,14.1 µM,4.9 µM,14 µM,4.03 µM,8.59 µM
C=CCN1CC(=O)N2[C@@H](Cc3ccc(O)cc3F)C(=O)N(Cc3cccc(N4CC(N5CCN(CC)CC5)C4)n3)C[C@@H]2N1C(=O)NCc1ccccc1,0.0217 µM,0.0829 µM,–,–,0.524 µM,> 100 µM,0.0756 µM,> 100 µM,0.0329 µM,> 100 µM,0.0354 µM,> 100 µM,0.0295 µM,–,0.0359 µM,> 100 µM,0.0348 µM,> 100 µM,0.0539 µM,10.5 µM
O=S(=O)(c1cccc(N=C=S)c1)c1cccc(N=C=S)c1,–,–,–,34.7 µM,–,–,–,32.9 µM,–,–,–,> 100 µM,–,–,–,–,–,39.8 µM,–,36.2 µM
Cc1ccc(S(=O)(=O)N/N=C(/CC(=O)c2c(C)n([O-])c3ccccc3[n+]2=O)C(=O)Nc2ccccc2C)cc1,–,> 100 µM,–,> 100 µM,–,–,–,> 100 µM,–,> 100 µM,–,> 100 µM,–,–,–,–,–,> 100 µM,–,> 100 µM
N#CC(C#N)c1ccc(C(=O)N2CCC[C@H]2CO)cc1,–,> 100 µM,–,> 100 µM,–,–,–,> 100 µM,–,> 100 µM,–,> 100 µM,–,> 100 µM,–,–,–,> 100 µM,–,> 100 µM
CC(=O)OCCOCNC(=S)N/N=C/c1cc(Br)cs1,–,–,–,> 100 µM,–,–,–,> 100 µM,–,> 100 µM,–,> 100 µM,–,> 100 µM,–,–,–,> 100 µM,–,> 100 µM
COCOCC/C=C/C=O,–,> 100 µM,–,> 100 µM,–,–,–,> 100 µM,–,–,–,> 100 µM,–,> 100 µM,–,–,–,> 100 µM,–,> 100 µM
N#CC(c1ccccn1)c1nc2ccccc2[nH]1 (stereo not given),–,–,–,–,–,–,–,> 100 µM,–,> 100 µM,–,> 100 µM,–,> 100 µM,–,–,–,> 100 µM,–,> 100 µM
CC1OC(OC2C(O)CC(OC3C(O)CC(OC4CCC5(C)C(CCC6C5CC(O)C5(C)C(C7=CC(=O)OC7)CCC65O)C4)OC3C)OC2C)CC(O)C1O (stereo not given),–,–,0.127 µM,1.11 µM,0.0436 µM,0.196 µM,0.0235 µM,0.0662 µM,0.0347 µM,0.139 µM,0.137 µM,0.295 µM,0.0566 µM,0.196 µM,0.0543 µM,0.538 µM,0.0359 µM,0.133 µM,0.157 µM,0.333 µM
O=C(c1nc2ccccc2[nH]c1=O)C(O)c1ccccc1 (stereo not given),–,> 100 µM,–,> 100 µM,–,–,–,> 100 µM,–,> 100 µM,–,> 100 µM,–,> 100 µM,–,–,–,> 100 µM,–,> 100 µM
O=C(O)CCC(=O)c1ccc2sc3ccccc3c2c1,–,–,–,> 100 µM,–,> 100 µM,–,> 100 µM,–,> 100 µM,–,> 100 µM,–,> 100 µM,–,> 100 µM,–,> 100 µM,–,> 100 µM
NC(=O)C(=O)C1CCC2=C(Sc3ccccc3N2)C1=O (stereo not given),–,> 100 µM,–,> 100 µM,–,–,–,> 100 µM,–,> 100 µM,–,> 100 µM,–,> 100 µM,–,–,–,> 100 µM,–,> 100 µM
